Experimental data from ChEMBL document CHEMBL1201862, “PubChem BioAssay data set” (2004).
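Dose response: 5 concentrations. Exposure: 48 h. Format: 96-well plates. Endpoint: linear interpolation; highest concentration if not reached. GI50: concentration for 50% inhibition of growth.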 The source made the active and inactive calls. Cut-off read from the data, not from the text of the source: active = GI50 up to about 1.1 µM and inactive = higher.

Columns and labels:
Test in all cases: NCI-60 cell line screen, 48 h
[1] = system: A549
[2] = system: NCI-H522
[3] = system: SNB-78
[4] = system: SF-268
[5] = system: CCRF-CEM
[6] = system: RXF 393
[7] = system: RPMI-8226
[8] = system: OVCAR-5
[9] = system: HOP-62
[10] = system: NCI-H23
[11] = system: SNB-19
[12] = system: NCI-H226
[13] = system: HCT-15
[14] = system: SF-295
[15] = system: DMS-273
[16] = system: UACC-257
[17] = system: TK-10
[18] = system: XF498
[19] = system: DU-145
[20] = system: MDA-N

Row | Structure (SMILES) | GI50 [1] | GI50 [2] | GI50 [3] | GI50 [4] | GI50 [5] | GI50 [6] | GI50 [7] | GI50 [8] | GI50 [9] | GI50 [10] | GI50 [11] | GI50 [12] | GI50 [13] [µM] | GI50 [14] | GI50 [15] | GI50 [16] | GI50 [17] | GI50 [18] | GI50 [19] | GI50 [20]
1 | Cc1ccccc1N(CCC#N)C1=NN(C(=O)CC(=O)Nc2ccc(Cl)cc2)C(c2ccccc2)C1 (stereo not drawn) | > 100 µM (inactive) | > 100 µM (inactive) | > 100 µM (inactive) | > 100 µM (inactive) | > 100 µM (inactive) | > 100 µM (inactive) | > 100 µM (inactive) | > 100 µM (inactive) | > 100 µM (inactive) | > 100 µM (inactive) | > 100 µM (inactive) | > 100 µM (inactive) | > 100 | > 100 µM (inactive) | > 100 µM (inactive) | > 100 µM (inactive) |  |  |  | 
2 | Cn1cnc([N+](=O)[O-])c1Sc1nc2cccnc2s1 | 34 µM (inactive) |  | 46.9 µM (inactive) | 28.8 µM (inactive) |  | 17.8 µM (inactive) | 19.2 µM (inactive) | 47.2 µM (inactive) | > 100 µM (inactive) | > 10 µM (inactive) | 78.9 µM (inactive) | 17.1 µM (inactive) | 11.6 | > 100 µM (inactive) | 16.7 µM (inactive) | 13.3 µM (inactive) | 15.7 µM (inactive) | 21 µM (inactive) |  | 
3 | CN(C)C1(C#N)CCC2(CC1)OCCO2 | > 100 µM (inactive) | > 100 µM (inactive) | > 100 µM (inactive) | > 100 µM (inactive) | > 100 µM (inactive) | > 100 µM (inactive) | > 100 µM (inactive) | > 100 µM (inactive) | > 100 µM (inactive) | > 100 µM (inactive) | > 100 µM (inactive) | > 100 µM (inactive) | > 100 | > 100 µM (inactive) | > 100 µM (inactive) | > 100 µM (inactive) | > 100 µM (inactive) |  |  | 
4 | O=C(CNc1nncs1)NO | > 100 µM (inactive) | > 100 µM (inactive) | > 100 µM (inactive) | > 100 µM (inactive) | > 10 µM (inactive) | > 100 µM (inactive) | > 100 µM (inactive) | > 100 µM (inactive) | > 100 µM (inactive) | > 100 µM (inactive) | > 100 µM (inactive) |  | > 100 | > 100 µM (inactive) | > 100 µM (inactive) | > 100 µM (inactive) | > 100 µM (inactive) |  |  | 
5 | O=c1cccccc1NCCCCNc1cccccc1=O | 59.2 µM (inactive) | 83.8 µM (inactive) | > 100 µM (inactive) | 41.4 µM (inactive) | > 100 µM (inactive) |  | 43.4 µM (inactive) | > 100 µM (inactive) | > 100 µM (inactive) | 67.8 µM (inactive) | 61 µM (inactive) | 73.6 µM (inactive) | 84.7 | > 100 µM (inactive) | > 100 µM (inactive) | > 100 µM (inactive) | > 100 µM (inactive) |  |  | 
6 | CC1(C)OC2C(CO)OC(n3cnc(N)nc3=O)C2O1 (stereo not drawn) | > 100 µM (inactive) | > 100 µM (inactive) |  | > 100 µM (inactive) | > 100 µM (inactive) | > 100 µM (inactive) | > 100 µM (inactive) | > 100 µM (inactive) | > 100 µM (inactive) | > 100 µM (inactive) | > 100 µM (inactive) | > 100 µM (inactive) | > 100 | > 100 µM (inactive) |  | > 100 µM (inactive) | > 100 µM (inactive) |  | > 100 µM (inactive) | > 100 µM (inactive)
7 | COC[C@@H](/N=C/N1CCc2cc(OC)c(OC)cc2[C@@H]1C)C(C)(C)C | > 100 µM (inactive) | > 100 µM (inactive) |  | > 100 µM (inactive) | > 100 µM (inactive) | > 100 µM (inactive) | > 100 µM (inactive) |  | > 100 µM (inactive) | > 100 µM (inactive) | > 100 µM (inactive) | > 100 µM (inactive) | > 100 | > 100 µM (inactive) |  | > 100 µM (inactive) | > 100 µM (inactive) | > 100 µM (inactive) |  | 
8 | COc1ccc2c(c1)[n+]([O-])c(-c1ccc([N+](=O)[O-])cc1)c(N)[n+]2[O-] | 70.8 µM (inactive) | 12.7 µM (inactive) | 96.4 µM (inactive) | 78.2 µM (inactive) | 56.5 µM (inactive) | > 100 µM (inactive) |  | > 100 µM (inactive) | > 100 µM (inactive) | 88.5 µM (inactive) | > 100 µM (inactive) | > 100 µM (inactive) |  | > 100 µM (inactive) | > 100 µM (inactive) | 81.3 µM (inactive) |  |  |  | 
9 | Nc1c(Cl)ncnc1NCCCCCCCCCCCCNc1ncnc(Cl)c1N | 2.07 µM (inactive) |  | 0.137 µM (active) | 2.3 µM (inactive) | 0.162 µM (active) | 1.54 µM (inactive) | 1.5 µM (inactive) | < 0.01 µM (active) | 0.254 µM (active) | < 0.01 µM (active) | 4.57 µM (inactive) |  | 1.88 | 1.01 µM (active) | 1.74 µM (inactive) | 0.0671 µM (active) | 4.6 µM (inactive) | 0.593 µM (active) |  | 
